In PubChem BioAssay AID1918937 (Molecular Pharmacology Branch, DTP, NCI, 2023):
pIC50: −log10 of the molar value. Several values for one entry are separate records, joined by “and”; a condition that tells them apart may be missing. Identical values can stand only once.

System: 521955-158-R2-J5-PDC complex spheroid viability
Assay: Anticancer human tumor 521955-158-R2-J5-PDC patient-derived pancreatic carcinoma cell line growth inhibition
Conditions: for viability, T/C: stronger effect = lower value
From the text: Multicellular complex tumor spheroid response to LSD1 Inhibitor Iadademstat in combination with a variety of drugs and investigational agents in selected tumor cell lines
The current study was undertaken to assess response to LSD1 inhibitors in combination with standard-of-care drugs and investigational agents in solid tumor complex spheroid models as well as in the K-562 leukemia. Complex spheroids include a stromal component modeled by human endothelial cells (HUVEC) and fibroblasts modeled by human mesenchymal stem cells (MSCs). The concentration ranges selected for each drug and investigational agent were based upon clinically achievable concentrations if the clinical Cmax of the agent was known.
Compounds. The drugs and investigational agents used in this study are listed on Table 1. All of the agents used, including staurosporine (NSC755774) and gemcitabine (NSC613327), were obtained from the Developmental Therapeutics Program, NCI. FDA-approved anticancer drugs are available from the NCI at http://dtp.nci.nih.gov/branches/dscb/oncology_drugset_explanation.html. Drugs and investigational agents were >95% pure by proton nuclear magnetic resonance (NMR) and liquid chromatography/mass spectrometry (LC/MS). Stock solutions were prepared at 400x in DMSO, stored at -70 degrees C, and diluted in fresh medium prior to their use. The final concentration of DMSO in cell culture wells never exceeded 0.25% (v/v). The FDA-approved anticancer drug set is available from the Developmental Therapeutics Program at https://dtp.cancer.gov/organization/dscb/obtaining/available_plates.htm. All drugs and investigational agents were tested over a range starting from a high concentration at or near the clinical Cmax and decreasing in half-log increments. If the clinical Cmax for an agent had not been determined, the highest concentration tested was 10 microM.
Cell Lines. The patient-derived cancer cell (PDC) lines: 292921-168-R-J2-PDC, K24384-001-R-PDC, and 521955-158-R2-J5-PDC pancreatic carcinomas, 556581-035-R-J1 ovarian carcinoma, 324938-238-R-J1-PDC, 855422-203-R-J1-PDC and 883617-216-R-J1-PDC urothelial bladder carcinomas, 743489-274-T-PDC renal cell carcinoma, 138582-R-J1 Merkel cell tumor, K60290-347-R-J1 and K57222-313-R-J1-PDC glioblastomas, 653999-131-R-J2-PDC, LG0703-F948-PDC, and 349418-098-R-PDC non-small cell lung carcinomas, 885512-296-R-J2-PDC, 171881-019-R-J1-PDC breast carcinomas and 186277-243-T-J2-PDC and 233499-124-R-J2-PDC colon carcinomas were obtained from the NCI Patient-Derived Models Repository (PDMR, https://pdmr.cancer.gov). The established cell lines NCI/ADR-RES (RRID:CVCL_14520 and OVCAR-5 (RRID:CVCL_1628) ovarian carcinomas, 786-O (RRID:CVCL_1051) and A498 (RRID:CVCL_A498) renal cell carcinoma, NCI-H211 (ATCC, cat. CRL-5824; RRID:CVCL_1529), NCI-H196 (ATCC, cat. CRL-5823, RRID:CVCL_1509), SW 1271 (ATCC, cat. CRL-2177, RRID:CVCL_1716) and NCI-H1876 (ATCC, cat. CRL-5902, RRID:CVCL_1503) small cell lung carcinomas, MDA-MB-231 (RRID:CVCL_0062) and MDA-MB-468 (RRID:CVCL_0419)breast carcinomas (10-12). Pooled donor human umbilical vein endothelial cells (HUVEC, Lonza, cat. CC-2519) and human mesenchymal stem cells (hMSC, Lonza, cat. PT-2501) were purchased from Lonza (Walkersville, MD).
Cell Culture. All cells were maintained in an incubator at 37 degrees C and 5% CO2 with 95% humidity. The PDC lines were cultured according to standard operating procedures established by the NCI PDMR (https://pdmr.cancer.gov). Briefly all PDCs were thawed and cultured in Matrigel-coated flasks prepared with a working solution of 1X Ham's F-12 nutrient mix, without supplementation (Invitrogen, Waltham, MA, cat. 11765054), 100 U/mL penicillin-streptomycin (Invitrogen, cat. 15140122), and 2.5% Matrigel (Corning Inc., Corning, NY, cat. 354248) for the first three passages. […]

[1] = curve of first compound, second compound 0.1 µM
[2] = curve of first compound, second compound 0.316 µM
[3] = curve of first compound, second compound 1 µM
[4] = curve of first compound, second compound 3.16 µM
[5] = curve of first compound, second compound 10 µM
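Also: spheroids exposed to agents for seven days.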
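For viability, T/C in this document: percent of DMSO vehicle control luminescence viability.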

## Nc1ccccc1NC(=O)c1ccc(CNC(=O)OCc2cccnc2)cc1 + NC1CCC(NC2CC2c2ccccc2)CC1
[1]
  pIC50: 6.49
[2]
  pIC50: 6.41
[3]
  pIC50: 6.47
[4]
  pIC50: 6.53
[5]
  pIC50: 6.48
Second compound 0.1 µM, first compound 0.00949 µM
  viability, T/C: 104%
Second compound 0.1 µM, first compound 0.03 µM
  viability, T/C: 107%
Second compound 0.1 µM, first compound 0.0949 µM
  viability, T/C: 86.8%
Second compound 0.1 µM, first compound 0.3 µM
  viability, T/C: 55.1%
Second compound 0.1 µM, first compound 0.949 µM
  viability, T/C: 9.73%
Second compound 0.1 µM, first compound 3 µM
  viability, T/C: 0.31%
Second compound 0.316 µM, first compound 0.00949 µM
  viability, T/C: 103%
Second compound 0.316 µM, first compound 0.03 µM
  viability, T/C: 99%
Second compound 0.316 µM, first compound 0.0949 µM
  viability, T/C: 88.7%
Second compound 0.316 µM, first compound 0.3 µM
  viability, T/C: 62.8%
Second compound 0.316 µM, first compound 0.949 µM
  viability, T/C: 11.8%
Second compound 0.316 µM, first compound 3 µM
  viability, T/C: 0.34%
Second compound 1 µM, first compound 0.00949 µM
  viability, T/C: 98.7%
Second compound 1 µM, first compound 0.03 µM
  viability, T/C: 101%
Second compound 1 µM, first compound 0.0949 µM
  viability, T/C: 84.4%
Second compound 1 µM, first compound 0.3 µM
  viability, T/C: 57%
Second compound 1 µM, first compound 0.949 µM
  viability, T/C: 12.4%
Second compound 1 µM, first compound 3 µM
  viability, T/C: 0.26%
Second compound 3.16 µM, first compound 0.00949 µM
  viability, T/C: 102%
Second compound 3.16 µM, first compound 0.03 µM
  viability, T/C: 101%
Second compound 3.16 µM, first compound 0.0949 µM
  viability, T/C: 80.4%
Second compound 3.16 µM, first compound 0.3 µM
  viability, T/C: 52.7%
Second compound 3.16 µM, first compound 0.949 µM
  viability, T/C: 10.7%
Second compound 3.16 µM, first compound 3 µM
  viability, T/C: 0.24%
Second compound 10 µM, first compound 0.00949 µM
  viability, T/C: 96.8%
Second compound 10 µM, first compound 0.03 µM
  viability, T/C: 98%
Second compound 10 µM, first compound 0.0949 µM
  viability, T/C: 78.2%
Second compound 10 µM, first compound 0.3 µM
  viability, T/C: 58.6%
Second compound 10 µM, first compound 0.949 µM
  viability, T/C: 10.2%
Second compound 10 µM, first compound 3 µM
  viability, T/C: 0.35%

## COc1ccc([C@@H](O)c2cc(-c3ncnc4cc(N5CCOCC5)ccc34)c(F)cc2Cl)nn1 + NC1CC1c1ccc(-c2cccc(O)c2)cc1
[1]
  pIC50: 5.91
[2]
  pIC50: 5.79
[3]
  pIC50: 5.88
[4]
  pIC50: 5.92
[5]
  pIC50: 6.08
Second compound 0.1 µM, first compound 0.0316 µM
  viability, T/C: 72.7%
Second compound 0.1 µM, first compound 0.1 µM
  viability, T/C: 78.3%
Second compound 0.1 µM, first compound 0.316 µM
  viability, T/C: 73.6%
Second compound 0.1 µM, first compound 1 µM
  viability, T/C: 49.9%
Second compound 0.1 µM, first compound 3.16 µM
  viability, T/C: 36.5%
Second compound 0.1 µM, first compound 10 µM
  viability, T/C: 21.6%
Second compound 0.316 µM, first compound 0.0316 µM
  viability, T/C: 74.3%
Second compound 0.316 µM, first compound 0.1 µM
  viability, T/C: 69.5%
Second compound 0.316 µM, first compound 0.316 µM
  viability, T/C: 68.2%
Second compound 0.316 µM, first compound 1 µM
  viability, T/C: 57.6%
Second compound 0.316 µM, first compound 3.16 µM
  viability, T/C: 39.9%
Second compound 0.316 µM, first compound 10 µM
  viability, T/C: 20.6%
Second compound 1 µM, first compound 0.0316 µM
  viability, T/C: 76.1%
Second compound 1 µM, first compound 0.1 µM
  viability, T/C: 72%
Second compound 1 µM, first compound 0.316 µM
  viability, T/C: 63.1%
Second compound 1 µM, first compound 1 µM
  viability, T/C: 55.5%
Second compound 1 µM, first compound 3.16 µM
  viability, T/C: 37.3%
Second compound 1 µM, first compound 10 µM
  viability, T/C: 20.5%
Second compound 3.16 µM, first compound 0.0316 µM
  viability, T/C: 74.5%
Second compound 3.16 µM, first compound 0.1 µM
  viability, T/C: 78.7%
Second compound 3.16 µM, first compound 0.316 µM
  viability, T/C: 65.4%
Second compound 3.16 µM, first compound 1 µM
  viability, T/C: 53.1%
Second compound 3.16 µM, first compound 3.16 µM
  viability, T/C: 35.2%
Second compound 3.16 µM, first compound 10 µM
  viability, T/C: 21.7%
Second compound 10 µM, first compound 0.0316 µM
  viability, T/C: 75.3%
Second compound 10 µM, first compound 0.1 µM
  viability, T/C: 70.6%
Second compound 10 µM, first compound 0.316 µM
  viability, T/C: 59.8%
Second compound 10 µM, first compound 1 µM
  viability, T/C: 49.9%
Second compound 10 µM, first compound 3.16 µM
  viability, T/C: 31.8%
Second compound 10 µM, first compound 10 µM
  viability, T/C: 21.6%

## COc1ccc([C@@H](O)c2cc(-c3ncnc4cc(N5CCOCC5)ccc34)c(F)cc2Cl)nn1
Compound 0.0316 µM
  viability, T/C: 99.8% and 97.6%
Compound 0.1 µM
  viability, T/C: 87% and 104%
Compound 0.316 µM
  viability, T/C: 73.6% and 84.4%
Compound 1 µM
  viability, T/C: 57.1% and 63.2%
Compound 3.16 µM
  viability, T/C: 38.6% and 57.8%
Compound 10 µM
  viability, T/C: 22.4% and 24.5%
Curve of compound
  pIC50: 5.81 and 5.47

## CC[C@@]1(O)C(=O)OCc2c1cc1n(c2=O)Cc2cc3c(CN(C)C)c(O)ccc3nc2-1
Compound 0.000316 µM
  viability, T/C: 108% and 106%
Compound 0.001 µM
  viability, T/C: 109% and 103%
Compound 0.00316 µM
  viability, T/C: 77.4% and 85.3%
Compound 0.01 µM
  viability, T/C: 14.3% and 24.3%
Compound 0.0316 µM
  viability, T/C: 7.49% and 11.1%
Compound 0.1 µM
  viability, T/C: 6.01% and 6.55%
Curve of compound
  pIC50: 8.28 and 8.21

## Nc1ncn(C2CC(O)C(CO)O2)c(=O)n1 (stereo not given)
Compound 0.00316 µM
  viability, T/C: 99.5% and 107%
Compound 0.01 µM
  viability, T/C: 103% and 102%
Compound 0.0316 µM
  viability, T/C: 96.7% and 96.2%
Compound 0.1 µM
  viability, T/C: 81.8% and 84.8%
Compound 0.316 µM
  viability, T/C: 79% and 74.5%
Compound 1 µM
  viability, T/C: 64.4% and 52.7%
Curve of compound
  pIC50: < 6.00

## CC1COCCN1c1cc(-c2ccnn2C)c2ccnc(-c3ccn[nH]3)c2n1 (stereo not given)
Compound 0.00316 µM
  viability, T/C: 10.8% and 14.6%
Compound 0.01 µM
  viability, T/C: 10.8% and 12.3%
Compound 0.0316 µM
  viability, T/C: 11.1% and 13%
Compound 0.1 µM
  viability, T/C: 18.1% and 21.3%
Compound 0.316 µM
  viability, T/C: 21.6% and 24.3%
Compound 1 µM
  viability, T/C: 12.5% and 17.1%
Curve of compound
  pIC50: > 8.50

## CCN(c1cc(-c2ccc(CN3CCOCC3)cc2)cc(C(=O)NCc2c(C)cc(C)[nH]c2=O)c1C)C1CCOCC1
Compound 0.00949 µM
  viability, T/C: 102% and 106%
Compound 0.03 µM
  viability, T/C: 100% and 106%
Compound 0.0949 µM
  viability, T/C: 98.5% and 102%
Compound 0.3 µM
  viability, T/C: 83.5% and 102%
Compound 0.949 µM
  viability, T/C: 73.1% and 87.9%
Compound 3 µM
  viability, T/C: 46.6% and 75%
Curve of compound
  pIC50: 5.59 and < 5.52
